Data taken from US20120157532A1, “Method Of Treating Or Preventing A Convulsive Disorder In A Patient In Need Thereof” (priority 2009, published 2012).

What was measured:
[1] = patients, oral administration; cited from earlier work
GABA transaminase = GABA transaminase (Homo sapiens, UniProt P80404); conditions: cited from earlier work
[2] = test system: Wistar rats Rj Wi IOPS Han; assay: Histology: retinal gliosis by GFAP immunolabelling; assay type: in vivo, rat; conditions: 65 days
Method: (§1) Animal treatments: As described previously (Duboc et al., 2004), Wistar rats Rj Wi IOPS Han were purchased from Janvier (Le Genest-St-lsle, France) at between six and seven weeks of age. VGB dissolved in 0.9% NaCl was administered at 40 mg (125 mg/ml, 0.32 ml) to rats by daily intraperitoneal injection for 65 days. These daily doses (rats: 200 mg/kg) are in-line with those described for the treatment of epilepsy in animals (Andre et al., 2001) or in humans (adult patients: […]; children: 50-75 mg/kg; or infants: 100-150 mg/kg) (Aicardi et al., 1996; Chiron et al., 1997; Lux et al., 2004). Light intensity in the animal cages ranged between 125 and 130 lux.
Histology: Eye cups were fixed overnight at 4° C. in 4 % (wt/vol) paraformaldehyde in phosphate buffered saline (PBS; 0.01 M, pH 7.4). The tissue was cryoprotected in successive solutions of PBS containing 10%, 20% and 30% sucrose at 4° C., oriented along the dorso-ventral axis and embedded in OCT (Labonord, Villeneuve d'Ascq, France). Retinal sections (8-10 μm thickness) were permeabilised for five minutes in PBS containing 0.1% Triton X-100 (Sigma, St. Louis, Mo.), rinsed, and incubated in PBS containing 1% bovine serum albumin (Eurobio, Les-Ulis, France), 0.1% Tween 20 (Sigma), and 0.1% sodium azide (Merck, Fontenay-Sous-Bois, France) for two hours at room temperature. The primary antibody added to the solution was incubated for two hours at room temperature. Polyclonal antibodies were directed against rabbit GFAP (1/400, Dako, USA). Sections were rinsed and then incubated with the secondary antibody, goat anti-rabbit IgG conjugated to Alexa TM488 (1:500, Molecular Probes, Eugene, Oreg.) for two hours. The dye, diamidiphenyl-indole (DAPI), was added during the final incubation period. […]
(§2) For quantification, vertical sections along the dorso-ventral axis were selected at the optic nerve. Following DAPI nuclear staining, the lengths of disorganised retinal areas were measured; GFAP immunostaining was used for detection and quantificationof retinal areas with reactive gliosis. […]

[3] = test system: Wistar rats Rj Wi IOPS Han; assay: Histology: lengths of disorganised retinal areas (DAPI nuclear staining); assay type: in vivo, rat; conditions: evening versus morning injection, 65 days; p<0.05
Method: as §1
Histology: Eye cups were fixed overnight at 4° C. in 4 % (wt/vol) paraformaldehyde in phosphate buffered saline (PBS; 0.01 M, pH 7.4). The tissue was cryoprotected in successive solutions of PBS containing 10%, 20% and 30% sucrose at 4° C., oriented along the dorso-ventral axis and embedded in OCT (Labonord, Villeneuve d'Ascq, France). […]
as §2

visual field = conditions: patients; cited from earlier work
[4] = test system: Wistar rats Rj Wi IOPS Han; assay: Photopic electroretinogram (ERG) in VGB-treated rats; assay type: in vivo, rat; conditions: for photopic ERG amplitude versus control group: p<0.001/p<0.01
Method: as §1
Electroretinogram (ERG): Photopic ERGs were recorded after the last VGB injection, as described previously (Duboc et al., 2004). Anesthesia was induced by intraperitoneal injection (0.8 to 1.2 ml/kg) of a solution containing ketamine (40 mg/ml) and xylazine (4 mg/ml Rompum). Animals were light-adapted for 10 minutes with a background light of 25 cdm^−2. Light flashes were then applied on this background light; the light intensity of the flash was 25 cdsm^−2. Ten recordings were averaged with an interstimulus interval of 30 s.
Statistical analysis: Statistical analysis of the results was performed by a one-way analysis of variance with the Student-Newman Keuls test (Sigmastat) for all measurements.

Sequence of GABA transaminase (P80404 29-500, species assumed): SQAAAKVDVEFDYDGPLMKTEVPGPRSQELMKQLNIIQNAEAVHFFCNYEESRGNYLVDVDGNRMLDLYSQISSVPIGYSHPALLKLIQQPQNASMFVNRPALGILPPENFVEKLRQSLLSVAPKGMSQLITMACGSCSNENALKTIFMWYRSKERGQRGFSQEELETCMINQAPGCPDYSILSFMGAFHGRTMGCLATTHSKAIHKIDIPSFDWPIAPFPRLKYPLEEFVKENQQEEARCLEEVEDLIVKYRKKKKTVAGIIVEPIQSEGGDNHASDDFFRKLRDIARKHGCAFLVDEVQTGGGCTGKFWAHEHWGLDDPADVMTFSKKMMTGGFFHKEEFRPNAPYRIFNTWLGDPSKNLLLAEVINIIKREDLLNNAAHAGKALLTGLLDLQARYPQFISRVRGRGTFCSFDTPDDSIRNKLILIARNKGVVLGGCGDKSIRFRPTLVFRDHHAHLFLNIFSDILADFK

GFAP staining in the outer retina versus control animals ([2]; VGB AM: morning injection): intense staining in the outer retina | GFAP staining in the outer retina versus control animals ([2]; VGB PM: evening injection): intense staining in the outer retina | distribution of GFAP-positive areas, VGB PM versus VGB AM ([2]; evening versus morning injection, p<0.05): less widely distributed | disorganised retinal areas (outer nuclear layer), VGB PM versus VGB AM [3]: smaller disorganised retinal areas | photopic ERG amplitude versus control group ([4]; VGB AM: 40 mg daily i.p. for 65 days at the beginning of the light cycle): lower ERG amplitude | photopic ERG amplitude versus control group ([4]; VGB PM: 40 mg daily i.p. for 65 days at the end of the light cycle): lower ERG amplitude | ERG amplitude decrease, VGB PM versus VGB AM ([4]; injected at the end versus the beginning of the light cycle, 65 days, p<0.005): less important
SMILES: C=CC(N)CCC(=O)O (centres unmarked) [VGB, 4-amino-5-hexenoic acid]
time for plasma VGB concentration to decrease to half of the peak concentration [1]: within six to eight hours | time to peak plasma VGB concentration [1]: within an hour | duration of irreversible inhibition of the GABA transaminase (GABA transaminase): lasts for few days | effect on visual field (visual field): irreversible constriction of the visual field
